Columns and labels:
Assay type in all cases: in vivo, nude/nude mice
[1] = system: AsPC-1 cells; test: AsPC-1 TGI-42 pancreatic cancer xenograft, tumor volumes; settings: 12.5 mg/kg QD
Procedure: (§1) Immunocompromised nude/nude mice are inoculated in the right hind flank with cells harboring a KRas G12D mutation. When tumor volumes reach between 200-400 mm^3 in size, the mice are divided into four to five groups of 5 mice each. The first group is administered vehicle only. […] The fourth or last groups are administered the single agent dose of the KRas G12D inhibitor using the twice daily schedule and/or the 2 sequential days followed by 5 days off schedule in combination with the single agent dose of one of the EGFR inhibitors. The treatment period varies from cell line to cell line but typically is between 15-40 days. Tumor volumes are measured using a caliper every two-three days and tumor volumes are calculated by the formula: […].
(§2) 20 to 30 nude/nude mice per study were inoculated in the right hind limb with 5×10^6 LS180 cells, AsPC-1 cells, GP2D cells, Panc 02.03 cells, SW1990 cells, or SNU-1033 cells.
Experimental Procedures. 30 nude/nude mice were inoculated with AsPC-1 cells in the right hind flank. When the tumors reached ˜300 mm^3 six treatment groups were established with five mice per group.

[2] = system: SW1990 cells; test: SW1990 TGI MDS #200407-807 pancreatic cancer xenograft, tumor volumes; settings: for Average Tumor Volumes: 12.5 mg/kg QD once daily
Procedure: as §1, with “The treatment period varies from cell line to cell line but typically is between 15-40 days.” left out
as §2
Experimental Procedures. 30 nude/nude mice were inoculated with SW1990 cells in the right hind flank. When the tumors reached ˜300 mm^3 six treatment groups were established with five mice per group.

[3] = system: Panc 02.03; test: Panc 02.03 TGI-43 pancreatic cancer xenograft (Table 5), tumor volumes; settings: for Average Tumor Volumes: 12.5 mg/kg QD (once daily)
Procedure: as §1, with “The treatment period varies from cell line to cell line but typically is between 15-40 days.” left out
20 to 30 nude/nude mice per study were inoculated in the right hind limb with 5×10^6 LS180 cells, AsPC-1 cells, GP2D cells, Panc 02.03 cells, SW1990 cells, or SNU-1033 cells. […]

CN(C)C/C=C/C(=O)Nc1cc2c(Nc3ccc(F)c(Cl)c3)ncnc2cc1OC1CCOC1 (stereo not shown) [Afatinib, (E)-N-(4-((3-chloro-4-fluorophenyl)amino)-7-((tetrahydrofuran-3-yl)oxy)quinazolin-6-yl)-4-(dimethylamino)but-2-enamide, reference compound]
tumor growth inhibition ([1]; single agent, Day 34): 11% | Average Tumor Volumes ([1]; Study Day 1): 328.208 mm^3 | Average Tumor Volumes ([1]; Study Day 6): 463.11 mm^3 | Average Tumor Volumes ([1]; Study Day 9): 641.776 mm^3 | Average Tumor Volumes ([1]; Study Day 13): 720.894 mm^3 | Average Tumor Volumes ([1]; Study Day 16): 768.716 mm^3 | Average Tumor Volumes ([1]; Study Day 20): 964.434 mm^3 | Average Tumor Volumes ([1]; Study Day 23): 1002.602 mm^3 | Average Tumor Volumes ([1]; Study Day 27): 1211.064 mm^3 | Average Tumor Volumes ([1]; Study Day 30): 1289.494 mm^3 | Average Tumor Volumes ([1]; Study Day 34): 1252.045 mm^3 | tumor growth inhibition ([2]; 12.5 mg/kg QD daily, single agent, Day 23): 20% | Average Tumor Volumes ([2]; Study Day 2): 455.54 mm^3 | Average Tumor Volumes ([2]; Study Day 6): 536.86 mm^3 | Average Tumor Volumes ([2]; Study Day 9): 624.98 mm^3 | Average Tumor Volumes ([2]; Study Day 13): 698.56 mm^3 | Average Tumor Volumes ([2]; Study Day 16): 778.74 mm^3 | Average Tumor Volumes ([2]; Study Day 20): 1141.575 mm^3 | Average Tumor Volumes ([2]; Study Day 23): 1293.5 mm^3 | Average Tumor Volumes ([2]; Study Day −1): 363.4 mm^3 | Average Tumor Volumes ([3]; Study Day 1): 331.548 mm^3 | Average Tumor Volumes ([3]; Study Day 4): 361.83 mm^3 | Average Tumor Volumes ([3]; Study Day 8): 398.444 mm^3 | Average Tumor Volumes ([3]; Study Day 11): 470.498 mm^3 | Average Tumor Volumes ([3]; Study Day 15): 660.352 mm^3 | Average Tumor Volumes ([3]; Study Day 18): 784.04 mm^3 | Average Tumor Volumes ([3]; Study Day 22): 904.724 mm^3 | tumor growth inhibition ([3]; 12.5 mg/kg daily, single agent, Day 22): 27%

Source: patent publication US20240408099A1, “COMBINATION […] OF KRAS G12D INHIBITORS WITH Pan ErbB FAMILY INHIBITORS” (MIRATI THERAPEUTICS, INC., priority 2021, published 2024)
